For this assay, the target named is T1, human renin (Homo sapiens, UniProt P00797).
T1 sequence (P00797 67-406): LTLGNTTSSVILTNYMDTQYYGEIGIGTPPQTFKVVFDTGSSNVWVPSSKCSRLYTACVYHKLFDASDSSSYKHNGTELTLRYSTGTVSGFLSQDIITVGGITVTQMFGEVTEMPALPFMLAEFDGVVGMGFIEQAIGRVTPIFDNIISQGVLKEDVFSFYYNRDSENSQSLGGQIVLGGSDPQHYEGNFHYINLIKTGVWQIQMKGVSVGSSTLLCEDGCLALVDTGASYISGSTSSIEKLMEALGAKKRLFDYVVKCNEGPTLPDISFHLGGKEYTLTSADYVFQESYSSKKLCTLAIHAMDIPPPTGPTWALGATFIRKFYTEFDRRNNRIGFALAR
Put plainly: In vitro test with pure human renin (inhibition of angiotensin I production from human tetradecapeptide renin substrate, RIA). Format: biochemical. The following applies: pH 7.4 buffer, hTD substrate, three hours at 37° C., angiotensin I by RIA. Here is the method:
IN VITRO TEST WITH PURE HUMAN RENIN
The test is carried out in Eppendorf test tubes. The incubation mixture consists of (1) 100 μl of human renin in buffer A (0.1M sodium phosphate solution, pH 7.4, containing 0.1% bovine serum albumin, 0.1% sodium azide and 1 mM ethylenediaminetetraacetic acid), sufficient for a renin activity of 2-3 ng of angiotensin I/ml/hr.; (2) 145 μl of buffer A; (3) 30 μl of 10 μM human tetradecapeptide renin substrate (hTD) in 10 mM hydrochloric acid; (4) 15 μl of dimethyl sulphoxide with or without inhibitor and (5) 10 μl of a 0.03 molar solution of hydroxyquinoline sulphate in water.
The samples are incubated for three hours at 37° C. or 4° C. in triplicate. 2×100 μl samples per experimental test tube are used in order to measure the production of angiotensin I via RIA (standard radioimmunoassay; clinical assay solid phase kit). Cross reactivities of the antibody used in the RIA are: angiotensin I 100%; angiotensin II 0.0013%; hTD (angiotensin I-Val-Ile-His-Ser-OH) 0.09%. The production of angiotensin I is determined by the difference between the experiment at 37° C. and that at 4° C.
The following controls are carried out:
(a) Incubation of hTD samples without renin and without inhibitor at 37° C. and 4° C. The difference between these two values gives the base value of the angiotensin I production.
(b) Incubation of hTD samples with renin, but without inhibitor at 37° C. and 4° C. The difference between these values gives the maximal value of angiotensin I production.
In each sample the base value of the angiotensin I production is subtracted from the angiotensin I production which is determined. The difference between the maximal value and the base value gives the value of the maximal substrate hydrolysis (=100%) by renin.
The results are given as IC50 values which denote that concentration of the inhibitor at which the enzymatic activity is inhibited by 50%. The IC50 values are determined from a linear regression curve from a logit-log plot.

Results on six molecules are retold here after patent US5278161A, “Amino acid derivatives useful as renin inhibitors” (Hoffmann-La Roche Inc., priority 1990, dated 1994).

The IC50 is the concentration that inhibits the measured activity by half. A high value points to lower potency. In turn, `CCC(C)c1nc(-c2cccnc2)cn2c(C(=O)N[C@@H](CC3CCCCC3)[C@@H](O)[C@@H](O)C3CC3)nnc12` (mixture of isomers) [F, N-[(1S,2R,3S)-1-(cyclohexylmethyl)-3-cyclopropyl-2,3-dihydroxypropyl]-8-[(RS)-1-methylpropyl]-6-(3-pyridyl)-s-triazolo[4,3-a]pyrazine-3-carboxamide] came in with an IC50 of 11 nM.

On to `CCCc1nc(-c2cccnc2)cn2c(C(C(=O)N[C@@H](CC3CCCCC3)[C@@H](O)[C@@H](O)C3CC3)c3cccnc3)nnc12` (single isomer, unassigned) [A, (R or S)-N-[(1S,2R,3S)-1-(Cyclohexylmethyl)-3-cyclopropyl-2,3-dihydroxypropyl]-8-propyl-α,6-bis(3-pyridyl)-s-triazolo[4,3-a]pyrazine-3-acetamide], for which it took 61 nM to reach half-maximal inhibition (IC50). This IC50 lies about 5.5-fold higher than the previous one.

With `CCCc1nc(-c2cccnc2)cn2c(C(Cc3cccnc3)C(=O)N[C@@H](CC3CCCCC3)[C@@H](O)[C@@H](O)CC(C)C)nnc12` (single isomer, unassigned) [D, (R or S)-N-[(1S,2R,3S)-1-(cyclohexylmethyl)-2,3-dihydroxy-5-methylhexyl]-8-propyl-6-(3-pyridyl)-α-(3-pyridylmethyl)-s-triazolo[4,3-a]pyrazine-3-acetamide], the IC50 was found to be 57 nM. This IC50 and that of the molecule before are within 1.5-fold of each other.

In turn, `CC(C)Cc1nc(-c2cccnc2)cn2c(C(Cc3cnc[nH]3)C(=O)N[C@@H](CC3CCCCC3)[C@@H](O)[C@@H](O)C3CC3)nnc12` (single isomer, unassigned) [C] returned an IC50 of 42 nM.

For `CCC(C)c1nc(-c2cccnc2)cn2c(C(Cc3cccnc3)C(=O)N[C@@H](CC3CCCCC3)[C@@H](O)[C@@H](O)C3CC3)nnc12` (single isomer, unassigned) [E, (S or R)-N-[(1S,2R,3S)-1-(cyclohexylmethyl)-3-cyclopropyl-2,3-dihydroxypropyl]-8-[(RS)-1-methylpropyl]-α-(3-pyridylmethyl)-6-(3-pyridyl)-s-triazolo[4,3-a]pyrazine-3-acetamide], 48 nM corresponded to half-maximal inhibition (IC50). The IC50 values of the last two molecules are within 1.5-fold of each other.

As for `CC(C)c1nc(-c2cccnc2)cn2c(C(Cc3c[nH]cn3)C(=O)N[C@@H](CC3CCCCC3)[C@@H](O)[C@@H](O)C3CC3)nnc12` (single isomer, unassigned) [B, (R or S)-N-[(1S,2R,3S)-1-(cyclohexylmethyl)-3-cyclopropyl-2,3-dihydroxypropyl]-8-isopropyl-α-(imidazol-4-ylmethyl)-6-(3-pyridyl)-s-triazolo[4,3-a]pyrazine-3-acetamide], it took 43 nM to reach half-maximal inhibition (IC50).
